Source: the supplement of paper PMC6045584
± gives the standard deviation of the averaged measurements.

Compound: COc1cc([C@@H]2c3cc4c(cc3[C@@H](O[C@@H]3O[C@@H]5CO[C@@H](C)O[C@H]5[C@H](O)[C@H]3O)[C@H]3COC(=O)[C@H]23)OCO4)cc(OC)c1O [ETOPOSIDE]
Test: surviving fraction relative to DMSO-only wells; higher = less growth inhibition
Settings: 0.5 nM; exposure time: 5 days
In short: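 Log-phase tumour cell lines were seeded at 250–500 cells per well in 384-well plates. After 24 hours they were exposed continuously for five days to inhibitors at 0.5, 1, 5, 10, 50, 100, 500 and 1000 nM. Viability was read by CellTiter-Glo luminescence after 10 minutes at room temperature, and surviving fraction is luminescence normalised to the median of DMSO-only wells. Each line was screened three times and kept only if replicate Pearson r >0.7 and median Z' >0.3.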

Test System | surviving fraction
22RV1 PROSTATE | 1.03 ± 0.084
93VU HEADNECK | 1 ± 0.042
143B BONE | 0.981 ± 0.021
A549 LUNG | 0.989 ± 0.071
ASKA SYNOVIAL | 1.07 ± 0.14
BT20 BREAST | 1.13 ± 0.073
BT549 BREAST | 0.976 ± 0.13
CADOES1 SOFT TISSUE | 0.948 ± 0.12
CAL51 BREAST | 0.951 ± 0.068
CAL120 BREAST | 0.939 ± 0.036
CASKI CERVIX | 0.904 ± 0.037
CHLA90 AUTONOMIC GANGLIA | 0.964 ± 0.044
CME SYNOVIAL | 1.18 ± 0.13
COLO320DM LARGE INTESTINE | 1.16 ± 0.034
DU4475 BREAST | 0.932 ± 0.028
H23 LUNG | 0.988 ± 0.067
HCC38 BREAST | 1.28 ± 0.31
HCC70 BREAST | 1.05 ± 0.078
HCC78 LUNG | 0.952 ± 0.064
HCC202 BREAST | 1.08 ± 0.35
HCC1806 BREAST | 0.883 ± 0.089
HCC1954 BREAST | 0.889 ± 0.22

Test System | surviving fraction
HCT15 LARGE INTESTINE | 1.01 ± 0.037
HELA CERVIX | 1.1 ± 0.033
HMLE3 BREAST | 1.02 ± 0.052
HMT3552 BREAST | 1.05
HOS BONE | 1.01 ± 0.011
HOSMNG BONE | 0.958 ± 0.1
HS57T BREAST | 1.02 ± 0.016
HS578T BREAST | 0.878 ± 0.18
HSSYII SYNOVIAL | 0.995 ± 0.045
HT1080 SOFT TISSUE | 1.02 ± 0.028
HU09 BONE | 0.957 ± 0.075
JIMT1 BREAST | 0.988 ± 0.02
JURKAT HAEMATOPOIETIC AND LYMPHOID TISSUE | 1.084 ± 0.0084
KPD BONE | 0.955 ± 0.016
LM7 BONE | 0.9 ± 0.14
MCF7 BREAST | 0.9 ± 0.049
MDAMB134 BREAST | 1.08 ± 0.13
MDAMB157 BREAST | 0.927 ± 0.12
MDAMB231 BREAST | 0.987 ± 0.022
MDAMB361 BREAST | 0.921 ± 0.048
MDAMB436 BREAST | 0.957 ± 0.038

Same assay, conditions: 1 nM; exposure time: 5 days

Test System | surviving fraction
22RV1 PROSTATE | 1 ± 0.083
93VU HEADNECK | 1.07 ± 0.033
143B BONE | 0.993
A549 LUNG | 0.99 ± 0.074
ASKA SYNOVIAL | 0.949 ± 0.012
BT20 BREAST | 1.17 ± 0.089
BT549 BREAST | 1.15 ± 0.075
CADOES1 SOFT TISSUE | 0.908 ± 0.12
CAL51 BREAST | 1.02 ± 0.022
CAL120 BREAST | 0.933 ± 0.033
CASKI CERVIX | 0.934 ± 0.061
CHLA90 AUTONOMIC GANGLIA | 0.995 ± 0.043
CME SYNOVIAL | 1.09 ± 0.048
COLO320DM LARGE INTESTINE | 1.05 ± 0.058
DU4475 BREAST | 0.97 ± 0.11
H23 LUNG | 1.07 ± 0.053
HCC38 BREAST | 1.19 ± 0.15
HCC70 BREAST | 0.995 ± 0.053
HCC78 LUNG | 0.863 ± 0.27

Test System | surviving fraction
HCC202 BREAST | 1.11 ± 0.12
HCC1806 BREAST | 1.04 ± 0.14
HCC1954 BREAST | 0.872 ± 0.095
HCT15 LARGE INTESTINE | 0.981 ± 0.03
HELA CERVIX | 1.1 ± 0.023
HMLE3 BREAST | 0.974 ± 0.06
HMT3552 BREAST | 1.05
HOS BONE | 1.02 ± 0.033
HOSMNG BONE | 0.984 ± 0.056
HS57T BREAST | 0.967 ± 0.049
HS578T BREAST | 0.849 ± 0.12
HSSYII SYNOVIAL | 0.972 ± 0.068
HT1080 SOFT TISSUE | 0.995 ± 0.026
HU09 BONE | 0.977 ± 0.09
JIMT1 BREAST | 1.01 ± 0.026
JURKAT HAEMATOPOIETIC AND LYMPHOID TISSUE | 1.1 ± 0.023
KPD BONE | 0.894 ± 0.047
LM7 BONE | 0.941 ± 0.072
MCF7 BREAST | 0.88 ± 0.045
